In ChEMBL document CHEMBL5550185, “Targeting hTERT Promoter G-Quadruplex DNA Structures with Small-Molecule Ligand to Downregulate hTERT Expression for Triple-Negative Breast Cancer Therapy” (J Med Chem, 2024):
The source made the active and inactive calls. No cut-off for these calls is given here.

Assays:
[1] = Upregulation of CCNB2 gene expression in human MDA-MB-231 cells assessed as fold change at 1 uM measured after 48 hrs by RNA-seq analysis relative to control; type: functional
[2] = Upregulation of CCND2 gene expression in human MDA-MB-231 cells assessed as fold change at 1 uM measured after 48 hrs by RNA-seq analysis relative to control; type: functional
MDA-MB-231 [3] = test: Inhibition of hTERT expression at transcriptional level in human MDA-MB-231 cells at 1 uM measured after 48 hrs by RNA-seq analysis; type: functional, cell-based
MDA-MB-231 [4] = test: Induction of mitochondrial dysfunction in human MDA-MB-231 cells assessed as downregulation of mitochondrial respiratory complex IV-COX II expression incubated for 48 hrs by Western blot analysis; type: functional, cell-based; conditions: dose 0-1.5 µM
[5] = Upregulation of CCNB3 gene expression in human MDA-MB-231 cells assessed as fold change at 1 uM measured after 48 hrs by RNA-seq analysis relative to control; type: functional
MDA-MB-231 [6] = test: Upregulation of glycolysis metabolic pathway in human MDA-MB-231 cells assessed as fold increase at 1.5 uM measured after 2 hrs by Seahorse XF24 analyzer relative to control; type: functional
[7] = Upregulation of PLK2 gene expression in human MDA-MB-231 cells assessed as fold change at 1 uM measured after 48 hrs by RNA-seq analysis relative to control; type: functional
[8] = Selectivity ratio of binding affinity to human TERT G4 DNA to binding affinity to Ckit-2 G4 DNA (unknown origin)
Quadruplex DNA [9] = test: Binding affinity to c-MYC Pu27 G4 DNA (unknown origin) assessed as change in gibbs free energy at 400 uM by ITC analysis; type: nucleic-acid assay
[10] = Upregulation of TGFBR2 gene expression in human MDA-MB-231 cells assessed as fold change at 1 uM measured after 48 hrs by RNA-seq analysis relative to control; type: functional
[11] = Upregulation of SAT2 gene expression in human MDA-MB-231 cells assessed as fold change at 1 uM measured after 48 hrs by RNA-seq analysis relative to control; type: functional
MDA-MB-231 [12] = test: Downregulation of CTCF mRNA expression in human MDA-MB-231 cells at 0 to 1.5 uM measured after 48 hrs by qRT-PCR analysis; type: functional, cell-based; conditions: dose 0-1.5 µM
[13] = Selectivity ratio of binding affinity to human TERT G4 DNA to binding affinity to RET G4 DNA (unknown origin)
[14] = Toxicity in female Balb/c nude mouse xenografted with human MDA-MB-231 cells assessed as pathological changes in heart at 2 to 5 mg/kg, iv administered via tail vein every 2 days for 16 days by H and E staining based analysis; type: organism-based; conditions: in vivo, 384 h, dose 2-5 mg/kg, time 16 day
Quadruplex DNA [15] = test: Binding affinity to Telo21 G4 DNA (unknown origin) assessed as change in gibbs free energy at 400 uM by ITC analysis; type: nucleic-acid assay
[16] = Upregulation of TNFSF10 gene expression in human MDA-MB-231 cells assessed as fold change at 1 uM measured after 48 hrs by RNA-seq analysis relative to control; type: functional
MDA-MB-231 [17] = test: Induction of mitochondrial dysfunction in human MDA-MB-231 cells assessed as mitochondrial membrane potential impairment at 0 to 1.5 uM incubated for 48 hrs by Hoechst33342 staining based microscopic analysis; type: functional, cell-based; conditions: dose 0-1.5 µM
[18] = Toxicity in female Balb/c nude mouse xenografted with human MDA-MB-231 cells assessed as signs of pain at 2 to 5 mg/kg, iv administered via tail vein every 2 days for 16 days; type: organism-based; conditions: in vivo, 384 h, dose 2-5 mg/kg, time 16 day
MDA-MB-231 [19] = test: Antitumor activity against human MDA-MB-231 cells xenografted in female Balb/c mouse assessed as inhibition of tumor cell proliferation at 5 mg/kg, iv administered via tail vein every 2 days for 16 days by Ki67 staining based assay; type: functional, organism-based; conditions: time 16.0 day
MDA-MB-231 [20] = test: Cytotoxicity against human MDA-MB-231 cells transfected with hTERT-pcDNA3.1(+)-C-eBFP overexpressing hTERT assessed as inhibition of cell growth measured after 48 hrs by MTT assay; type: functional, cell-based; conditions: MDA-MB-231, 48 h
MDA-MB-231 [21] = test: Antitumor activity against human MDA-MB-231 cells xenografted in iv dosed female Balb/c mouse assessed as nucleolysis in tumor administered via tail vein every 2 days for 16 days by H and E staining based analysis; type: functional, organism-based; conditions: dose 2-5 mg/kg, time 16.0 day
[22] = Toxicity in female Balb/c nude mouse xenografted with human MDA-MB-231 cells assessed as change in granulocyte count at 2 to 5 mg/kg, iv administered via tail vein every 2 days for 16 days; type: organism-based; conditions: in vivo, 384 h, dose 2-5 mg/kg, time 16 day
dsDNA = test: Binding affinity to 4a4t duplex DNA (unknown origin) assessed as thermal stability by measuring change in melting temperature at 400 uM […]; type: nucleic-acid assay
HeLa = test: Cytotoxicity against telomerase-positive human HeLa cells assessed as inhibition of cell growth incubated for 48 hrs by MTT assay; type: functional, cell-based
MDA-MB-231 [23] = test: Induction of ferroptosis in human MDA-MB-231 cells assessed as disruption of iron metabolism by measuring increase in bright yellow fluorescent spots measured after 48 hrs by FerroOrange/Hoechst 33342 staining based confocal microscopic analysis; type: functional, cell-based; conditions: dose 0-1.5 µM
MDA-MB-231 [24] = test: Downregulation of ND1 gene expression in human MDA-MB-231 cells at 1 uM measured after 48 hrs by RNA-seq analysis; type: functional, cell-based
MDA-MB-231 [25] = test: Induction of oxidative stress in human MDA-MB-231 cells assessed as cellular DNA fragmentation at 0 to 1.5 uM measured after 48 hrs by comet assay; type: functional, cell-based; conditions: dose 0-1.5 µM
MDA-MB-231 [26] = test: Inhibition of hTERT protein expression in human MDA-MB-231 cells measured after 48 hrs by Western blot analysis; type: functional, cell-based; conditions: dose 0-1.5 µM
Quadruplex DNA [27] = test: Binding affinity to hTERT G4 DNA assessed as thermal stability by measuring change in melting temperature at 400 uM […]; type: nucleic-acid assay; conditions: Homo sapiens
MDA-MB-231 [28] = test: Antitumor activity against human MDA-MB-231 cells xenografted in female Balb/c mouse assessed as reduction in tumor volume at 5 mg/kg, iv administered via tail vein every 2 days for 16 days relative to control; type: functional; parameters: scale not given: the % may be the effect or the level left; conditions: time 16 day
MDA-MB-231 [29] = test: Induction of DNA damage in human MDA-MB-231 cells assessed as upregulation of 53BP1 protein expression measured after 48 hrs by Western blot analysis; type: functional, cell-based; conditions: dose 0-1.5 µM
[30] = Selectivity ratio of binding affinity to human TERT G4 DNA to binding affinity to Pu27 G4 DNA (unknown origin)
U2OS = test: Cytotoxicity against alternative lengthening of telomere-positive human U2OS cells assessed as inhibition of cell growth incubated for 48 hrs by MTT assay; type: functional, cell-based
[31] = Toxicity in female Balb/c nude mouse xenografted with human MDA-MB-231 cells assessed as signs of ulcer at 2 to 5 mg/kg, iv administered via tail vein every 2 days for 16 days; type: organism-based; conditions: in vivo, 384 h, dose 2-5 mg/kg, time 16 day
[32] = Upregulation of PLK4 gene expression in human MDA-MB-231 cells assessed as fold change at 1 uM measured after 48 hrs by RNA-seq analysis relative to control; type: functional
MDA-MB-231 [33] = test: Activation of apoptosis in human MDA-MB-231 cells assessed as upregulation of BAX protein expression measured after 48 hrs by Western blot analysis; type: functional, cell-based; conditions: dose 0-1.5 µM

C[n+]1c(/C=C/c2c[nH]c3ccccc23)cc(/C=C2\Sc3ccccc3N2CCCN2CCC(C(F)(F)F)CC2)c2ccccc21.[I-]
fold change (FC) [1]: >2
fold change (FC) [2]: >2
inhibition (MDA-MB-231 [3]): Active
Activity (MDA-MB-231 [4]): Dose-Dependent Effect
fold change (FC) [5]: >2
fold change (FC) (MDA-MB-231 [6]): >0.8
fold change (FC) [7]: >2
Selectivity ratio [8]: 2
deltaG (Quadruplex DNA [9]): -6.59 kcal/mol
fold change (FC) [10]: >2
fold change (FC) [11]: >2
Activity (MDA-MB-231 [12]): inactive
Selectivity ratio [13]: 2
Activity [14]: Non-Toxic
deltaG (Quadruplex DNA [15]): -7.49 kcal/mol
fold change (FC) [16]: >2
Activity (MDA-MB-231 [17]): Active
Activity [18]: Non-Toxic
Activity (MDA-MB-231 [19]): Active
IC50 (MDA-MB-231 [20]): 3.3 µM
Activity (MDA-MB-231 [21]): Dose-Dependent Effect
Activity [22]: Non-Toxic
ΔTm (dsDNA): 1.65 °C
IC50 (HeLa): 2.6 µM
Activity (MDA-MB-231 [23]): Dose-Dependent Effect
Activity (MDA-MB-231 [24]): Active
Activity (MDA-MB-231 [25]): Active
inhibition (MDA-MB-231 [26]): Dose-Dependent Effect
ΔTm (Quadruplex DNA [27]): 11.7 °C
Activity (MDA-MB-231 [28]): 78.5%
Activity (MDA-MB-231 [29]): Dose-Dependent Effect
Selectivity ratio [30]: 2
IC50 (U2OS): 3.9 µM
Activity [31]: Non-Toxic
fold change (FC) [32]: >2
Activity (MDA-MB-231 [33]): Dose-Dependent Effect
